{"source": "paper PMC4695825", "about": "(Pharmaceutics, 2015)", "key": {"[1]": {"parameters": "method as in PMID 20188808", "conditions": "400 μm needle length, cited from earlier work"}, "[2]": {"conditions": "cited from earlier work; for logP / water solubility: no reference given"}, "[3]": {"conditions": "cited from earlier work"}, "[4]": {"parameters": "method as in PMID 24333401", "conditions": "nanostructured lipid carrier; cited from earlier work"}, "[5]": {"conditions": "mean ± SD, n = 6; for Microneedle cumulative amount after 12 h (Qs): skin treated with 500 μm microneedle roller", "protocol": "Frozen porcine ears were obtained from Animal Technologies, Tyler, TX, USA. Skin pieces were thawed at ambient temperatures and carefully shaved using an electric clipper (Wahl, Sterling, IL, USA). Full thickness skin was prepared by removing the subcutaneous fat from the underlying cartilage. The average thickness of the skin membrane was measured with a Digimatic Micrometer (Mitutoyo, Tokyo, Japan). Skin samples were maintained at −20 °C for storage. Prior to experiments, the skin samples were thawed at room temperature before use.\nIn vitro permeation experiments were conducted using a six-celled, static, vertical Franz diffusion cell system (PermeGear, Hellertown, PA, USA). Each cell contained a top donor compartment and a lower receptor compartment with a magnetic stirrer, sampling port, and water jacket maintained at 37 °C to simulate normal body temperature by Thermo Haake DC10-P5/U heating circulator bath (ThermoFisher Scientific, Waltham, MA, USA). The receptor compartment diffusion area was 1.77 cm^2 with a volume capacity of 12 mL filled with PBS. Skin samples obtained from different pigs were placed between the upper donor chamber and lower receiver chamber of the vertical Franz diffusion cells, which were sealed using high-vacuum grease (Dow Corning, Midland, MA, USA) and a metal clamp. Solid microneedle rollers were used to created microchannels in porcine skin. Full thickness microneedle-treated porcine skins were mounted on three-receptor compartments and untreated porcine skins were placed on the remaining three-receptor compartments to serve as controls, and diffusion experiments for the two drugs were replicated six times (n = 6). The microneedle roller was applied fifteen times to each skin sample to increase the number of microconduits for enhanced transdermal drug delivery. […] The sampling ports were also covered with parafilm to further reduce evaporation. […] Receptor chambers were replenished with an equal volume of fresh, pre-warmed PBS maintained at 37 °C. All samples were stored at 4 °C until analysis by LC–MS. The cumulative amount of each drug permeating the excised full thickness porcine skin was plotted as a function of time. The slope and intercept of the linear portion were derived by linear regression analysis. Steady state flux was calculated from the linear portion of the cumulative amount versus time curve.\nChromatographic separation was carried out on the reverse-phase Agilent Zorbax Eclipse Plus C18 (100 mm × 2.1 mm, 3.5 microns) analytical column, which was protected by a guard column with the same stationary phase (12.5 mm × 4.6 mm, 5 microns) (Agilent Technologies, Palo Alto, CA, USA). The column temperature was set at 40 °C, and the autosampler temperature was set at 4 °C. The mobile phase consisted of 0.1% formic acid in water (solvent A), and 0.1% formic acid in methanol (solvent B). […] A post-run time of 2 min for mobile phase equilibration was used after each sample run. Calibration curve standards were freshly prepared in PBS buffer solution. The MS data were collected in positive electro spray ionization tandem mass spectrometry (ESI MS/MS) mode. Nebulizer temperature was 350 °C, nebulizer pressure was 50 psi, and the drying gas flow rate was 10.0 L/min. Compounds were quantified in positive ESI MS/MS mode by quantifying the specific product ion.\nFlux values were calculated using the steady-state portion of the cumulative amount versus time curves. Six replicates were used for the study."}}, "note": "Counter-ions that a name gives are not always drawn. Like-named read-outs stand apart in the source and are kept apart here."}
{"compound": "Nc1nc2c(ncn2COCCO)c(=O)[nH]1", "note": "[acyclovir]", "values": [{"measurement": "Flux enhancement after microneedle array pretreatment", "setting": "[1]; 2000 needles/cm^2", "result": "significant enhancement"}, {"measurement": "Flux enhancement after microneedle array pretreatment", "setting": "[1]; 5625 needle/cm^2", "result": "lower enhancement"}]}
{"compound": "NC12CC3CC(CC(C3)C1)C2", "note": "[amantadine hydrochloride, Amantadine hydrochloride]", "values": [{"measurement": "partition coefficient", "setting": "[2]", "result": 2.44}, {"measurement": "logP", "setting": "[2]", "result": 2.4}, {"measurement": "water solubility", "setting": "[2]", "result": 50, "unit": "mg/mL"}, {"measurement": "pharmacokinetic half-life", "setting": "[3]", "result": 10, "unit": "h"}]}
{"compound": "Cc1cc2c(s1)Nc1ccccc1N=C2N1CCN(C)CC1", "note": "[olanzapine]", "values": [{"measurement": "Change in transdermal permeation rate after microneedle device pretreatment", "setting": "[4]", "result": "slight but not statistically significant increase"}]}
{"compound": "CCCN[C@H]1CCc2nc(N)sc2C1", "note": "[pramipexole dihydrochloride]", "values": [{"measurement": "logP", "setting": "[2]", "result": 1.2}, {"measurement": "water solubility", "setting": "[2]", "result": "> 20", "unit": "mg/mL"}, {"measurement": "octanolphosphate buffer partition coefficient", "setting": "[2]; pH 7.4", "result": 0.135}, {"measurement": "pharmacokinetic half-life", "setting": "[3]", "result": "6 to 8", "unit": "h"}, {"measurement": "Microneedle-facilitated transdermal flux", "setting": "[5]; full thickness porcine ear skin treated with 500 μm stainless steel microneedle roller, 37 °C, donor amantadine ~50 mg/mL or pramipexole ~1 mg/mL, steady state", "result": "134.04 ± 0.98", "unit": "μg/cm^2/h"}, {"measurement": "Microneedle cumulative amount after 12 h (Qs)", "setting": "[5]; 12 h, listed as Pramipexole", "result": "1583.43 ± 72.99", "unit": "μg/cm^2"}, {"measurement": "Microneedle cumulative amount after 12 h (Qs)", "setting": "[5]; 12 h, listed as pramipexole", "result": 1583.43, "unit": "μg/cm^2"}, {"measurement": "Passive (control) transdermal flux", "setting": "[5]; untreated full thickness porcine ear skin, 37 °C, donor amantadine ~50 mg/mL or pramipexole ~1 mg/mL, steady state", "result": "134.83 ± 13.66", "unit": "μg/cm^2/h"}, {"measurement": "Passive (control) cumulative amount after 12 h (Qs)", "setting": "[5]; untreated full thickness porcine ear skin, 12 h", "result": "1607.86 ± 35.77", "unit": "μg/cm^2"}]}
